This is an account of results in DBAASP.

Converted amounts (≈) assume the structure as drawn. “And” between values parts separate entries of the source, which are not always exact repeats. Equal values may be shown once.

Test systems include Candida krusei ATCC 6258; Escherichia coli; Pseudomonas aeruginosa 1; Pseudomonas aeruginosa 2; Staphylococcus aureus; Enterobacter cloacae; Candida albicans; Clostridium perfringens; Aerococcus viridans; Vibrio cholerae; Streptococcus pneumoniae; Bacillus megaterium; Pseudomonas aeruginosa; Escherichia coli B; Salmonella typhimurium; Listeria monocytogenes; Saccharomyces cerevisiae; Klebsiella pneumoniae; Escherichia coli K88; Escherichia coli K99; Escherichia coli UB1005; Acinetobacter baumannii; Methylobacterium sp.; Xanthomonas citri.

Common to all, as to assay: ≥ marks a high value that may be exact or a test limit, other limits are often not marked, values filed in µg/mL are converted to µM
Test [1] has as its system Staphylococcus epidermidis ATCC 12228.
The test system of test [2] is Enterococcus faecalis ATCC 4028.
Test [3] has as its system Enterobacter cloacae ATCC 13047.
For test [4], the system named is Candida glabrata ATCC 90030.
Test [5] relates to Candida albicans ATCC 90028.
Test [6] relates to Escherichia coli ATCC 25922.
Test [7] concerns Pseudomonas aeruginosa ATCC 27853.
Test [8] has as its system Staphylococcus aureus ATCC 29213.
Test [9] relates to Staphylococcus aureus ATCC 25923.
Test [10] deals with Salmonella enterica subsp. enterica serovar Enteritidis.
Test [11] relates to Staphylococcus haemolyticus.
Test [12] concerns Pseudomonas aeruginosa PAO1.
In test [13] the test system is Pseudomonas aeruginosa CICC 21625.
The subject of test [14] is Pseudomonas aeruginosa CICC 21630.
In test [15] the test system is Salmonella enterica subsp. enterica serovar Typhimurium C77-31.
The subject of test [16] is Salmonella enterica subsp. enterica serovar Pullorum C79-13.
For test [17], the system named is Salmonella enterica subsp. enterica serovar Typhimurium ATCC 14028.
Test [18] has as its system Sinorhizobium meliloti USDA 1002.
The test system of test [19] is Agrobacterium tumefaciens GV3101.
For test [20], the system named is Micrococcus luteus ATCC 49732.
Test [21] concerns Staphylococcus aureus ATCC 12600.
Test [22] deals with Escherichia coli ATCC 11775.
For test [23], the system named is Candida albicans ATCC 14053.

Usually MIC stands for the smallest concentration in the dilution series that meets the test's criterion for growth inhibition. High values mean weaker potency, low ones greater potency. Take `CC[C@H](C)[C@H](NC(=O)[C@H](CC(C)C)NC(=O)[C@H](CCCCN)NC(=O)[C@H](CCCCN)NC(=O)[C@@H](NC(=O)[C@H](CC(C)C)NC(=O)[C@H](CCCCN)NC(=O)[C@@H]1CCCN1C(=O)[C@@H](NC(=O)[C@H](CC(C)C)NC(=O)[C@H](CCCCN)NC(=O)[C@H](Cc1ccccc1)NC(=O)[C@@H](N)Cc1ccccc1)[C@@H](C)CC)C(C)C)C(=O)N[C@@H](CCCCN)C(=O)N[C@@H](C)C(=O)N[C@@H](Cc1ccccc1)C(=O)N[C@@H](CCCCN)C(N)=O` [FFKLIPKLVKKLIKAFK]: the MIC came out at 2.3 µM (≈ 4.74 µg/mL) in test [1]; 1.2 µM (≈ 2.47 µg/mL) in test [2]; 4.7 µM (≈ 9.69 µg/mL) in test [3]; 4.7 µM (≈ 9.69 µg/mL) in test [4]; 4.7 µM (≈ 9.69 µg/mL) in [5]; 1.2 µM (≈ 2.47 µg/mL) in test [6]. Besides, the minimum inhibitory concentration (MIC) in the test on Candida krusei ATCC 6258 was 4.7 µM (≈ 9.69 µg/mL); in test [7], 2.3 µM (≈ 4.74 µg/mL); in test [8], 2.3 µM (≈ 4.74 µg/mL).

In the case of `CC[C@H](C)[C@H](NC(=O)CN)C(=O)NCC(=O)N[C@@H](C)C(=O)N[C@H](C(=O)N[C@@H](CC(C)C)C(=O)N[C@@H](CCCCN)C(=O)N[C@@H](Cc1c[nH]c2ccccc12)C(=O)N[C@@H](CC(C)C)C(=O)N1CCC[C@H]1C(=O)N[C@@H](C)C(=O)N[C@@H](CC(C)C)C(=O)N[C@H](C(=O)N[C@@H](CCCCN)C(=O)N[C@@H](CCCN=C(N)N)C(=O)N[C@@H](CCCCN)C(=O)N[C@@H](CCCN=C(N)N)C(=O)N[C@@H](CCC(N)=O)C(=O)N[C@@H](CCC(N)=O)C(=O)O)[C@@H](C)CC)C(C)C` [GIGAVLKWLPALIKRKRQQ], the MIC against Escherichia coli is 0.405 µM (≈ 0.88 µg/mL); in [9], 0.0575 µM (≈ 0.125 µg/mL); in the test on Pseudomonas aeruginosa 1, 1.15 µM (≈ 2.5 µg/mL); in the test with Pseudomonas aeruginosa 2, 4.6 µM (≈ 10 µg/mL); in [6], 0.575 µM (≈ 1.25 µg/mL); in [7], 2.3 µM (≈ 5 µg/mL). In the test on Staphylococcus aureus, the MIC was 0.115 µM and 0.163 µM.

As for `CC[C@H](C)[C@H](NC(=O)[C@H](CC(C)C)NC(=O)[C@H](CO)NC(=O)[C@@H](NC(=O)[C@@H](NC(=O)[C@H](CC(C)C)NC(=O)CN)C(C)C)[C@@H](C)O)C(=O)N[C@@H](CCCCN)C(=O)NCC(=O)N[C@@H](C)C(=O)NCC(=O)N[C@@H](CCCCN)C(=O)N[C@@H](CC(C)C)C(=O)N[C@@H](CC(C)C)C(=O)NCC(=O)NCC(=O)N[C@@H](CC(C)C)C(=O)N[C@@H](Cc1ccccc1)C(=O)NCC(=O)N[C@@H](CO)C(=O)N[C@H](C(=O)N[C@H](C(=O)NCC(=O)NCC(=O)N[C@@H](CCC(N)=O)C(=O)N[C@@H](CO)C(=O)O)[C@@H](C)O)C(C)C` [GLVTSLIKGAGKLLGGLFGSVTGGQS], the MIC against Enterobacter cloacae was 12.5 µM (≈ 30.2 µg/mL); in the test with Candida albicans it was 50 µM (≈ 121 µg/mL); with Clostridium perfringens it was at least 50 µM; in the test with Aerococcus viridans, 3.1 µM (≈ 7.5 µg/mL); in test [10], 3.1 µM (≈ 7.5 µg/mL); against Vibrio cholerae, 25 µM (≈ 60.4 µg/mL). In addition, the MIC stood at 6.25 µM (≈ 15.1 µg/mL) in the test with Streptococcus pneumoniae; 25 µM (≈ 60.4 µg/mL) in the test with Bacillus megaterium; 3.1 µM (≈ 7.5 µg/mL) against Pseudomonas aeruginosa; 6.25 µM (≈ 15.1 µg/mL) with Escherichia coli B; 3.1 µM (≈ 7.5 µg/mL) in the test on Salmonella typhimurium; 25 µM (≈ 60.4 µg/mL) with Listeria monocytogenes. Besides, the MIC in test [11] was at least 50 µM; in the test on Saccharomyces cerevisiae, at least 50 µM; in the test on Klebsiella pneumoniae it was 6.25 µM (≈ 15.1 µg/mL); against Staphylococcus aureus, 6.25 µM (≈ 15.1 µg/mL).

As to `CC[C@H](C)[C@H](N)C(=O)N[C@@H](CCCN=C(N)N)C(=O)N1CCC[C@H]1C(=O)N[C@H](C(=O)N[C@H](C(=O)N[C@@H](CCCN=C(N)N)C(=O)N1CCC[C@H]1C(=O)N[C@H](C(=O)N[C@H](C(=O)N[C@@H](CCCN=C(N)N)C(=O)N1CCC[C@H]1C(=O)N[C@H](C(=O)N[C@H](C(=O)N[C@@H](CCCN=C(N)N)C(=O)N1CCC[C@H]1C(=O)N[C@H](C(N)=O)[C@@H](C)CC)[C@@H](C)CC)[C@@H](C)CC)[C@@H](C)CC)[C@@H](C)CC)[C@@H](C)CC)[C@@H](C)CC` [IRPIIRPIIRPIIRPI], the MIC was 16 µM (≈ 31 µg/mL) against Escherichia coli; over 64 µM in test [12]; at least 64 µM in test [13]; 4 µM (≈ 7.74 µg/mL) against Escherichia coli K88; 8 µM (≈ 15.5 µg/mL) with Escherichia coli K99; at least 64 µM in test [14]. Besides, the MIC in [15] is 16 µM (≈ 31 µg/mL); in test [16], 16 µM (≈ 31 µg/mL); with Pseudomonas aeruginosa, over 64 µM; against Escherichia coli UB1005 it was 16 µM (≈ 31 µg/mL); in [6], 16 µM (≈ 31 µg/mL); in test [7] it was over 64 µM. Moreover, the MIC in test [17] is 16 µM (≈ 31 µg/mL); against Klebsiella pneumoniae it was 32 µM (≈ 61.9 µg/mL); against Acinetobacter baumannii it was 8 µM (≈ 15.5 µg/mL).

On to `CC[C@H](C)[C@H](NC(=O)[C@H](C)NC(=O)[C@H](CCCCN)NC(=O)[C@@H](NC(=O)[C@H](CC(C)C)NC(=O)[C@H](C)NC(=O)[C@H](CCCCN)NC(=O)[C@H](Cc1ccccc1)NC(=O)[C@@H](NC(=O)[C@H](C)NC(=O)[C@H](CCCCN)NC(=O)CNC(=O)[C@@H](NC(=O)[C@H](CCCCN)NC(=O)[C@@H](NC(=O)[C@@H](NC(=O)[C@H](Cc1ccccc1)NC(=O)[C@H](CCCCN)NC(=O)[C@H](CC(C)C)NC(=O)[C@H](CC(C)C)NC(=O)[C@@H](N)CCCCN)C(C)C)[C@@H](C)O)C(C)C)[C@@H](C)CC)[C@@H](C)CC)C(=O)O` [KLLKFVTKVGKAIFKALIKAI], for which the MIC (in [18]; in the test with Methylobacterium sp.; against Xanthomonas citri; in test [19]) was 3 µM (≈ 6.99 µg/mL) in each case.

`CC(C)[C@H](NC(=O)[C@H](C)NC(=O)[C@H](C)NC(=O)CNC(=O)[C@@H]1CCCN1)C(=O)N[C@@H](Cc1ccccc1)C(=O)N[C@@H](CCCCN)C(=O)O` [PGAAVFK]: the MIC in test [20] is at least 36 µM; in [21], 12 µM (≈ 8.27 µg/mL); in test [22], 12 µM (≈ 8.27 µg/mL); in test [23] it was at least 36 µM.
